# Values quoted from earlier work as cited in patent US20240158375A1, “COMPOUNDS AND METHODS FOR THE TREATMENT OF OCULAR DISORDERS” (Azura Ophthalmics Ltd., priority 2020, published 2024).
# Columns and labels:
# integrin α4 = integrin α4 (Homo sapiens, UniProt P05556+P13612); details: Ravensberg et al, Allergy (2006) 61, 1097-1103
# murine DS model = details: Invest. Ophthalmol. Vis. Sci. (2015) 56(10), 5888-5895
# Sequence of integrin α4 (P13612 34-1032, species assumed): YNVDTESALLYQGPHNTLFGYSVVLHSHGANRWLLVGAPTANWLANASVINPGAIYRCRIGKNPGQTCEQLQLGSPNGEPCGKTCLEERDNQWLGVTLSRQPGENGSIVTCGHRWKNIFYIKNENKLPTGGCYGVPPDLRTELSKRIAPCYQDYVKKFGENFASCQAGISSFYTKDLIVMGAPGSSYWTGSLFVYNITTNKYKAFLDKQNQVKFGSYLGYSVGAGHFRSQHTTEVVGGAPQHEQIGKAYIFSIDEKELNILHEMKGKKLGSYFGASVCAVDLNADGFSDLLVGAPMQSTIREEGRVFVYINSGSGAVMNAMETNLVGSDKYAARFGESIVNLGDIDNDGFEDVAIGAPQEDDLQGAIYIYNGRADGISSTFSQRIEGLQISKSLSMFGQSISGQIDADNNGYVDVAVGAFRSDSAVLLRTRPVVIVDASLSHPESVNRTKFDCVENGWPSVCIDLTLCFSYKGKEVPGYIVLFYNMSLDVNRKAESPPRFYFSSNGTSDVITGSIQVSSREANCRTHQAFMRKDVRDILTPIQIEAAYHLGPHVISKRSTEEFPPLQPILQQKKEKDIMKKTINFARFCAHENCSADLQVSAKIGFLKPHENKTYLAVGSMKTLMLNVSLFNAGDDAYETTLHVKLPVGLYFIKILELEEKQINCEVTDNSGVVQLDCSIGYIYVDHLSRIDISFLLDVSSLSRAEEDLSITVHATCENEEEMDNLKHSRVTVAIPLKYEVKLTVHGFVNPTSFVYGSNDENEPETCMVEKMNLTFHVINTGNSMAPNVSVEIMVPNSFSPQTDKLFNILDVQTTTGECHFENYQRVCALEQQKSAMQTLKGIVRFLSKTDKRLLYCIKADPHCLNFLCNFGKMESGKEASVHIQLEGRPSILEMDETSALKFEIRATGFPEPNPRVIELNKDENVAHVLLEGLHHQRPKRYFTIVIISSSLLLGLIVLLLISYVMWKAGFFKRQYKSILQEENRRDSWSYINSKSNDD
# Sequence of integrin α4 (P05556 21-798, species assumed): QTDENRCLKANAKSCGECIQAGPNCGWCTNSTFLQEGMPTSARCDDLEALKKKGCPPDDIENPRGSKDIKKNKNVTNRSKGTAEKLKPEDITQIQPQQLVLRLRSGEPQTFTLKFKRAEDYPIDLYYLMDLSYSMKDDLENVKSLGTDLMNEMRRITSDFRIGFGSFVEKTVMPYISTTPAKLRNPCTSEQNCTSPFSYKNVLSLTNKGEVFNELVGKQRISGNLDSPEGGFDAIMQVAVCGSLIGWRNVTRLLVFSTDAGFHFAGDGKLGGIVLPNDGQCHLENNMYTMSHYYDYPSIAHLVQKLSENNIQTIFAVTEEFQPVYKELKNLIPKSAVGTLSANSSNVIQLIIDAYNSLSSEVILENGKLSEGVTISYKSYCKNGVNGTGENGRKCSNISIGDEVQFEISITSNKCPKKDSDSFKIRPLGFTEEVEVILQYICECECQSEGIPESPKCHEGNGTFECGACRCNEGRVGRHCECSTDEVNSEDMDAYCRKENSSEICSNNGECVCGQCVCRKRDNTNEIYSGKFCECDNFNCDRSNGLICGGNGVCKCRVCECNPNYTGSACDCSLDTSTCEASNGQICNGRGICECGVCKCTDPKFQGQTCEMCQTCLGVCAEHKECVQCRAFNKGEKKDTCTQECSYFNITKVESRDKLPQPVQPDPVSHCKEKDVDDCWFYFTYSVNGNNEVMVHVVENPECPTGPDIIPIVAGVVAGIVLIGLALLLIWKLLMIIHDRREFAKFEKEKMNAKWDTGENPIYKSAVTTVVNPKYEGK
smiles,measurement,setting,value
Cc1ccccc1OCC(=O)N[C@@H](CC(C)C)C(=O)N[C@@H](Cc1ccc(OC(=O)N2CCC(C(N)=O)CC2)cc1)C(=O)O [(S)-3-(4-((4-carbamoylpiperidine-1-carbonyl)oxy)phenyl)-2-((S)-4-methyl-2-(2-(o-tolyloxy)acetamido)pentanamido)propanoic acid],integrin α4 antagonist activity,integrin α4,potent integrin a4 antagonist
same,objective signs of dry eye,murine DS model,improvements in objective signs of dry eye
